The values below are quoted from earlier work in patent US20260216238A1, “TETRATHIOMOLYBDIC ACID FOR USE IN TREATING COPPER METABOLISM-ASSOCIATED DISEASES OR DISORDERS (WILSON DISEASE)” (Alexion Pharmaceuticals, Inc., priority 2023, published 2026).

This data set concerns patients with Wilson disease (WD). Particulars: cited from earlier work; for patients with worsening of neurological symptoms on initiation of treatment: in vivo.

`CC(C)(S)[C@@H](N)C(=O)O` [penicillamine, (2S)-2-amino-3-methyl-3-sulfanylbutanoic acid]: the “patients with worsening of neurological symptoms on initiation of treatment” value is reported as “approximately 25%”. The “patients with severe side effects requiring drug withdrawal” value (Schilsky et al., 2022) is “approximately 30%”.
On to `NCCNCCNCCN` [trientine, N′-[2-(2-aminoethylamino)ethyl]ethane-1,2-diamine], for which the “patients with worsening of neurological symptoms on initiation of treatment” value is reported as “approximately 25%”.
With `[Zn]` [zinc], the “patients with gastric irritation or gastritis” value (Schilsky et al., 2022) is on record as “~ ⅓”. Moreover, the hepatic treatment failure (long-term follow-up (Weiss et al., 2011)) is reported as 14/88.
